# US10376520B2, “Methods for the treatment of cardiovascular disorders” (Galapagos NV, priority 2015, dated 2019)
# Tested on: RA patients
# Experiment: Total cholesterol determination, Study 1 (RA patients with inadequate response to methotrexate, add-on to MTX)
# Assay type: in vivo, human
# Experimental: Double-blind, placebo-controlled add on study in subjects with moderately to severely active RA who have an inadequate response to methotrexate (MTX) (oral or parenteral).
# 595 subjects randomized to one of 6 dose regimens of Compound 1 (dosed as a [Compound 1:HCl:3H2O]) (3 dose levels administered either once or twice daily) or placebo on top of each subject's stable dose of MTX.
# Compound 1 (dosed as a [Compound 1:HCl:3H2O]) is dosed for twelve weeks once daily (q.d.) (50 mg, 100 mg or 200 mg) or twice daily (b.i.d.) (25 mg, 50 mg or 100 mg); or placebo.
# At Week 12, the subjects on placebo who have not achieved 20% improvement in swollen joint count (SJC66) and tender joint count (TJC68) are re-randomized automatically to receive Compound 1 (dosed as a [Compound 1:HCl:3H2O]) either at 100 mg q.d. or 50 mg b.i.d. doses in a blinded fashion; subjects on 50 mg q.d. who have not achieved 20% improvement in SJC66 and TJC68 will be assigned to 100 mg q.d. and subjects on 25 mg b.i.d. that have not achieved a 20% improvement in SJC66 and TJC68 will be assigned to 50 mg b.i.d. Subjects who switch treatment at week 12 are handled as if they discontinued at week 12 for the purpose of statistical analysis, whereas subjects in the other groups will maintain their randomized treatment until Week 24.
# This method is based on the determination of Δ^4 cholestenone after enzymatic cleavage of the cholesterol ester by cholesterol esterase, conversion of cholesterol by cholesterol oxidase, and subsequent measurement by the Trinder reaction of the hydrogen peroxide formed (Allain et al., 1974).
# Cholesterol esters are cleaved by the action of cholesterol esterase to yield free cholesterol and fatty acids. Cholesterol oxidase then catalyzes the oxidation of cholesterol to cholest-4-en-3-one and hydrogen peroxide. In the presence of peroxidase, the hydrogen peroxide formed effects the oxidative coupling of phenol and 4-aminophenazone to form a red quinone-imine dye. The color intensity of the dye formed is directly proportional to the cholesterol concentration. It is determined by measuring the increase in absorbance.
# Human serum and plasma samples cholesterol determination was done on a Roche/Hitachi Cobas c 701/702 system which automatically calculate the analyte concentration of each sample.
structure (smiles),measurement,setting,value
"O=C(Nc1nc2cccc(-c3ccc(CN4CCS(=O)(=O)CC4)cc3)n2n1)C1CC1 [Compound 1, cyclopropanecarboxylic acid {5-[4-(1,1-dioxo-thiomorpholin-4-ylmethyl)-phenyl]-[1,2,4]triazolo[1,5-a]pyridin-2yl}-amide]",[total cholesterol] Mean percentage CFB - 24 weeks results,"continued 25 mg b.i.d (N = 69), week 12",6.38%
same,[total cholesterol] Mean percentage CFB - 24 weeks results,"continued 25 mg b.i.d (N = 69), week 16",5.51%
same,[total cholesterol] Mean percentage CFB - 24 weeks results,"continued 25 mg b.i.d (N = 69), week 20",6.95%
same,[total cholesterol] Mean percentage CFB - 24 weeks results,"continued 25 mg b.i.d (N = 69), week 24",6.53%
same,[total cholesterol] Mean percentage CFB - 24 weeks results,"continued 50 mg b.i.d. (N = 85), week 1",3.39%
same,[total cholesterol] Mean percentage CFB - 24 weeks results,"continued 50 mg b.i.d. (N = 85), week 2",3.87%
same,[total cholesterol] Mean percentage CFB - 24 weeks results,"continued 50 mg b.i.d. (N = 85), week 4",7.04%
same,[total cholesterol] Mean percentage CFB - 24 weeks results,"continued 50 mg b.i.d. (N = 85), week 8",5.63%
same,[total cholesterol] Mean percentage CFB - 24 weeks results,"continued 50 mg b.i.d. (N = 85), week 12",5.67%
same,[total cholesterol] Mean percentage CFB - 24 weeks results,"continued 50 mg b.i.d. (N = 85), week 16",6.23%
same,[total cholesterol] Mean percentage CFB - 24 weeks results,"continued 50 mg b.i.d. (N = 85), week 20",7.91%
same,[total cholesterol] Mean percentage CFB - 24 weeks results,"continued 50 mg b.i.d. (N = 85), week 24",7.97%
same,[total cholesterol] Mean percentage CFB - 24 weeks results,"continued 50 mg q.d. (N = 63), week 1",0.77%
same,[total cholesterol] Mean percentage CFB - 24 weeks results,"continued 50 mg q.d. (N = 63), week 2",−0.22%
same,[total cholesterol] Mean percentage CFB - 24 weeks results,"continued 50 mg q.d. (N = 63), week 4",1.08%
same,[total cholesterol] Mean percentage CFB - 24 weeks results,"continued 50 mg q.d. (N = 63), week 8",3.49%
same,[total cholesterol] Mean percentage CFB - 24 weeks results,"continued 50 mg q.d. (N = 63), week 12",5.58%
same,[total cholesterol] Mean percentage CFB - 24 weeks results,"continued 50 mg q.d. (N = 63), week 16",5.15%
same,[total cholesterol] Mean percentage CFB - 24 weeks results,"continued 50 mg q.d. (N = 63), week 20",4.68%
same,[total cholesterol] Mean percentage CFB - 24 weeks results,"continued 50 mg q.d. (N = 63), week 24",6.75%
same,[total cholesterol] Mean percentage CFB - 24 weeks results,"continued 100 mg b.i.d. (N = 84), week 1",6.85%
same,[total cholesterol] Mean percentage CFB - 24 weeks results,"continued 100 mg b.i.d. (N = 84), week 2",8.38%
same,[total cholesterol] Mean percentage CFB - 24 weeks results,"continued 100 mg b.i.d. (N = 84), week 4",9.86%
same,[total cholesterol] Mean percentage CFB - 24 weeks results,"continued 100 mg b.i.d. (N = 84), week 8",14.79%
same,[total cholesterol] Mean percentage CFB - 24 weeks results,"continued 100 mg b.i.d. (N = 84), week 12",14.98%
same,[total cholesterol] Mean percentage CFB - 24 weeks results,"continued 100 mg b.i.d. (N = 84), week 16",12.82%
same,[total cholesterol] Mean percentage CFB - 24 weeks results,"continued 100 mg b.i.d. (N = 84), week 20",12.71%
same,[total cholesterol] Mean percentage CFB - 24 weeks results,"continued 100 mg b.i.d. (N = 84), week 24",15.39%
same,[total cholesterol] Mean percentage CFB - 24 weeks results,"continued 100 mg q.d. (N = 85), week 1",3.65%
same,[total cholesterol] Mean percentage CFB - 24 weeks results,"continued 100 mg q.d. (N = 85), week 2",2.32%
same,[total cholesterol] Mean percentage CFB - 24 weeks results,"continued 100 mg q.d. (N = 85), week 4",4.86%
same,[total cholesterol] Mean percentage CFB - 24 weeks results,"continued 100 mg q.d. (N = 85), week 8",3.79%
same,[total cholesterol] Mean percentage CFB - 24 weeks results,"continued 100 mg q.d. (N = 85), week 12",5.39%
same,[total cholesterol] Mean percentage CFB - 24 weeks results,"continued 100 mg q.d. (N = 85), week 16",1.87%
same,[total cholesterol] Mean percentage CFB - 24 weeks results,"continued 100 mg q.d. (N = 85), week 20",3.28%
same,[total cholesterol] Mean percentage CFB - 24 weeks results,"continued 100 mg q.d. (N = 85), week 24",5.05%
same,[total cholesterol] Mean percentage CFB - 24 weeks results,"continued 200 mg q.d. (N = 86), week 1",5.53%
same,[total cholesterol] Mean percentage CFB - 24 weeks results,"continued 200 mg q.d. (N = 86), week 2",9.86%
same,[total cholesterol] Mean percentage CFB - 24 weeks results,"continued 200 mg q.d. (N = 86), week 4",8.99%
same,[total cholesterol] Mean percentage CFB - 24 weeks results,"continued 200 mg q.d. (N = 86), week 8",6.72%
same,[total cholesterol] Mean percentage CFB - 24 weeks results,"continued 200 mg q.d. (N = 86), week 12",10.16%
same,[total cholesterol] Mean percentage CFB - 24 weeks results,"continued 200 mg q.d. (N = 86), week 16",9.19%
same,[total cholesterol] Mean percentage CFB - 24 weeks results,"continued 200 mg q.d. (N = 86), week 20",8.00%
same,[total cholesterol] Mean percentage CFB - 24 weeks results,"continued 200 mg q.d. (N = 86), week 24",9.94%
same,[total cholesterol] Mean percentage CFB - 24 weeks results,"from 25 mg b.i.d. to 50 mg b.i.d at 12 weeks (N = 17), week 1",0.55%
same,[total cholesterol] Mean percentage CFB - 24 weeks results,"from 25 mg b.i.d. to 50 mg b.i.d at 12 weeks (N = 17), week 2",2.37%
same,[total cholesterol] Mean percentage CFB - 24 weeks results,"from 25 mg b.i.d. to 50 mg b.i.d at 12 weeks (N = 17), week 4",−2.60%
same,[total cholesterol] Mean percentage CFB - 24 weeks results,"from 25 mg b.i.d. to 50 mg b.i.d at 12 weeks (N = 17), week 8",−2.81%
same,[total cholesterol] Mean percentage CFB - 24 weeks results,"from 25 mg b.i.d. to 50 mg b.i.d at 12 weeks (N = 17), week 12",0.30%
same,[total cholesterol] Mean percentage CFB - 24 weeks results,"from 25 mg b.i.d. to 50 mg b.i.d at 12 weeks (N = 17), week 16",4.23%
same,[total cholesterol] Mean percentage CFB - 24 weeks results,"from 25 mg b.i.d. to 50 mg b.i.d at 12 weeks (N = 17), week 24",2.66%
same,[total cholesterol] Mean percentage CFB - 24 weeks results,"from 50 mg q.d. to 100 mg q.d. at 12 weeks (N = 19), week 1",1.24%
same,[total cholesterol] Mean percentage CFB - 24 weeks results,"from 50 mg q.d. to 100 mg q.d. at 12 weeks (N = 19), week 2",4.36%
same,[total cholesterol] Mean percentage CFB - 24 weeks results,"from 50 mg q.d. to 100 mg q.d. at 12 weeks (N = 19), week 4",1.67%
same,[total cholesterol] Mean percentage CFB - 24 weeks results,"from 50 mg q.d. to 100 mg q.d. at 12 weeks (N = 19), week 8",2.29%
same,[total cholesterol] Mean percentage CFB - 24 weeks results,"from 50 mg q.d. to 100 mg q.d. at 12 weeks (N = 19), week 12",2.39%
same,[total cholesterol] Mean percentage CFB - 24 weeks results,"from 50 mg q.d. to 100 mg q.d. at 12 weeks (N = 19), week 16",7.55%
same,[total cholesterol] Mean percentage CFB - 24 weeks results,"from 50 mg q.d. to 100 mg q.d. at 12 weeks (N = 19), week 20",6.69%
same,[total cholesterol] Mean percentage CFB - 24 weeks results,"from 50 mg q.d. to 100 mg q.d. at 12 weeks (N = 19), week 24",5.15%
same,[total cholesterol] Mean percentage CFB - 24 weeks results,"placebo switched to 50 mg b.i.d at week 12 (N = 15), week 16",3.97%
same,[total cholesterol] Mean percentage CFB - 24 weeks results,"placebo switched to 50 mg b.i.d at week 12 (N = 15), week 20",5.80%
same,[total cholesterol] Mean percentage CFB - 24 weeks results,"placebo switched to 50 mg b.i.d at week 12 (N = 15), week 24",3.22%
